Test results: US7074789B2, “Kinase inhibitors” (Amgen Inc., priority 1999, dated 2006)

Legend:
Format in all cases: biochemical
Lck = target: T1, Lck (Homo sapiens, UniProt P06239); assay: Kinase inhibition assay (33P transfer), Lck; conditions: read-out: Lck-1
T1 construct: Kinases are expressed as either kinase domains or full length constructs; made in house
Method in brief: (§1)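 Liquid scintillation counting of 33P on plate-bound synthetic substrates gives kinase activity. Plates are washed in 0.5% phosphoric acid first; kinases are tagged recombinant proteins from E. coli or baculovirus-infected High Five cells.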

Lyn = target: T2, Lyn (Homo sapiens, UniProt P07948); assay: Kinase inhibition assay (33P transfer), Lyn; conditions: Table 6, Lyn-1 kinase inhibition class
T2 construct: Kinases are expressed as either kinase domains or full length constructs; made in house
T2 sequence (P07948 whole entry, species assumed, the tested form may be a part): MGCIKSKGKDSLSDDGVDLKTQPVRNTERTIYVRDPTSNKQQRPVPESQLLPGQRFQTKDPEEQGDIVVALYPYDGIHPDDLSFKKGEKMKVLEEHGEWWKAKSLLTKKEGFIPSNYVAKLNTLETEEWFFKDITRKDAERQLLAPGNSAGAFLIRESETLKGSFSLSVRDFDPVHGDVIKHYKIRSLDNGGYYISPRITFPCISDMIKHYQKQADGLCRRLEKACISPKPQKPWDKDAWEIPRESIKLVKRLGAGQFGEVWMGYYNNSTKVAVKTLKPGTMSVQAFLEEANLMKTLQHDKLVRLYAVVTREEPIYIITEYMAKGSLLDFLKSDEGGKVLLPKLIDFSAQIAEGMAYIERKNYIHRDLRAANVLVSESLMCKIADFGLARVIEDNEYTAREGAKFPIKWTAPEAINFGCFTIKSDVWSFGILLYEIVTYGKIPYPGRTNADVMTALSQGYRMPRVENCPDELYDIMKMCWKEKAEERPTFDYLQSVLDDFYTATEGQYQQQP
Method in brief: (§2)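 GST/His-fusion kinases, E. coli or High Five expressed, affinity purified; 33P-ATP, plate-coated poly(Glu,Tyr) 4:1 or poly(Arg,Ser) 3:1; 0.5% H3PO4 wash, scintillant, LSC.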

Src = target: T3, Src (Homo sapiens, UniProt P12931); assay: Kinase inhibition assay (33P transfer), Src; conditions: Table 6, Src-1 kinase inhibition class
T3 construct: Kinases are expressed as either kinase domains or full length constructs; made in house
Method in brief: as §2

Fyn = target: T4, Fyn (Homo sapiens, UniProt P06241); assay: Kinase inhibition assay (33P transfer), Fyn; conditions: read-out: Fyn-1
T4 construct: Kinases are expressed as either kinase domains or full length constructs; made in house
Method in brief: as §2

Zap-70 = target: T5, Zap-70 (Homo sapiens, UniProt P43403); assay: Kinase inhibition assay (33P transfer), Zap-70; conditions: read-out: Zap-1
T5 construct: Kinases are expressed as either kinase domains or full length constructs; made in house
T5 sequence (P43403 1-619): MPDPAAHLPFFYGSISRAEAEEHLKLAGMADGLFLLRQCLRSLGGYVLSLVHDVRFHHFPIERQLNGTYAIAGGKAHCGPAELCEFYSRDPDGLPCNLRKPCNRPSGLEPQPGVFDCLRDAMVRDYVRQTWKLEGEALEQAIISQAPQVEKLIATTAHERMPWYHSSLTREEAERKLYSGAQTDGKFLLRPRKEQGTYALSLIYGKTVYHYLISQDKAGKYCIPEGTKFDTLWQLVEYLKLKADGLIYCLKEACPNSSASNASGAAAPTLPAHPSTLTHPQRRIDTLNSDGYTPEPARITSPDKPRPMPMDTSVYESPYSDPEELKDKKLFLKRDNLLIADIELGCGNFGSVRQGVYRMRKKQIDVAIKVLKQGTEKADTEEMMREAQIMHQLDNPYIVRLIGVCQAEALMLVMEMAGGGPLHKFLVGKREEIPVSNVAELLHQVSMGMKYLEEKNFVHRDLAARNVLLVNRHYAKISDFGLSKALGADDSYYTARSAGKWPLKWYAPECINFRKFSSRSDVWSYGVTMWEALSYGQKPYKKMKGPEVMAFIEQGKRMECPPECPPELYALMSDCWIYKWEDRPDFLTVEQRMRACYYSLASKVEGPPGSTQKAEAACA
Method in brief: as §1

Itk = target: T6, Itk (Homo sapiens, UniProt Q08881); assay: Kinase inhibition assay (33P transfer), Itk; conditions: read-out: Itk-1
T6 construct: Kinases are expressed as either kinase domains or full length constructs; made in house
T6 sequence (Q08881 1-620): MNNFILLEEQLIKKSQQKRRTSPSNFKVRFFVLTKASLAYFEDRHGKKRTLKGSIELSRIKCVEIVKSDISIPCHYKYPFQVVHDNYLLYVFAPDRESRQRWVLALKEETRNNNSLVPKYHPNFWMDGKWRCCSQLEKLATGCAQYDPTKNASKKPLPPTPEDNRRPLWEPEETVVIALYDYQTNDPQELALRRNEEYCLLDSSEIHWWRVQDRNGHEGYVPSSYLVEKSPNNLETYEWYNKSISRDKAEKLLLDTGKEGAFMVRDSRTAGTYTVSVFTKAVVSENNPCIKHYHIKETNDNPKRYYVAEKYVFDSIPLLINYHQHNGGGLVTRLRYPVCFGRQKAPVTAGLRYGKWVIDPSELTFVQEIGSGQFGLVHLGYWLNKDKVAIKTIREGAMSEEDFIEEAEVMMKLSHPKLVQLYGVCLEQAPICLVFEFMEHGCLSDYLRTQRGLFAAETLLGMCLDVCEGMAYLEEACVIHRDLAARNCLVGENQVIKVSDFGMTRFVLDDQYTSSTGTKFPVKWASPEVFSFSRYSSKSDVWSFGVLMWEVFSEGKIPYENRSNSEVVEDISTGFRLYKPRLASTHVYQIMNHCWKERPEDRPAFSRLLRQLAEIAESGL
Method in brief: as §2

EGFR = target: T7, EGFR (Homo sapiens, UniProt P00533); assay: Kinase inhibition assay (33P transfer), EGFR; conditions: Table 2, kinase inhibition class; read-out: EGFR-1
T7 construct: Kinases are expressed as either kinase domains or full length constructs; made in house
Method in brief: as §2

ErbB2 = target: T8, ErbB2 (Homo sapiens, UniProt P04626); assay: Kinase inhibition assay (33P transfer), ErbB2; conditions: read-out: ErbB2-2
T8 construct: Kinases are expressed as either kinase domains or full length constructs; made in house
Method in brief: as §2

Kdr = target: T9, Kdr (Homo sapiens, UniProt P35968); assay: Kinase inhibition assay (33P transfer), Kdr; conditions: read-out: KDR-1
T9 construct: Kinases are expressed as either kinase domains or full length constructs; made in house
Method in brief: as §1

Flt-1 = target: T10, Flt-1 (Homo sapiens, UniProt P17948); assay: Kinase inhibition assay (33P transfer), Flt-1
T10 construct: Kinases are expressed as either kinase domains or full length constructs; made in house
Method in brief: as §2

Tek = target: T11, Tek (Homo sapiens, UniProt Q02763); assay: Kinase inhibition assay (33P transfer), Tek; conditions: read-out: Tek-1
T11 construct: Kinases are expressed as either kinase domains or full length constructs; made in house
Method in brief: as §2

c-Met = target: T12, c-Met (Homo sapiens, UniProt P08581); assay: Kinase inhibition assay (33P transfer), c-Met; conditions: Table 2, kinase inhibition class; read-out: Met-1
T12 construct: Kinases are expressed as either kinase domains or full length constructs; made in house
T12 sequence (P08581 25-1390): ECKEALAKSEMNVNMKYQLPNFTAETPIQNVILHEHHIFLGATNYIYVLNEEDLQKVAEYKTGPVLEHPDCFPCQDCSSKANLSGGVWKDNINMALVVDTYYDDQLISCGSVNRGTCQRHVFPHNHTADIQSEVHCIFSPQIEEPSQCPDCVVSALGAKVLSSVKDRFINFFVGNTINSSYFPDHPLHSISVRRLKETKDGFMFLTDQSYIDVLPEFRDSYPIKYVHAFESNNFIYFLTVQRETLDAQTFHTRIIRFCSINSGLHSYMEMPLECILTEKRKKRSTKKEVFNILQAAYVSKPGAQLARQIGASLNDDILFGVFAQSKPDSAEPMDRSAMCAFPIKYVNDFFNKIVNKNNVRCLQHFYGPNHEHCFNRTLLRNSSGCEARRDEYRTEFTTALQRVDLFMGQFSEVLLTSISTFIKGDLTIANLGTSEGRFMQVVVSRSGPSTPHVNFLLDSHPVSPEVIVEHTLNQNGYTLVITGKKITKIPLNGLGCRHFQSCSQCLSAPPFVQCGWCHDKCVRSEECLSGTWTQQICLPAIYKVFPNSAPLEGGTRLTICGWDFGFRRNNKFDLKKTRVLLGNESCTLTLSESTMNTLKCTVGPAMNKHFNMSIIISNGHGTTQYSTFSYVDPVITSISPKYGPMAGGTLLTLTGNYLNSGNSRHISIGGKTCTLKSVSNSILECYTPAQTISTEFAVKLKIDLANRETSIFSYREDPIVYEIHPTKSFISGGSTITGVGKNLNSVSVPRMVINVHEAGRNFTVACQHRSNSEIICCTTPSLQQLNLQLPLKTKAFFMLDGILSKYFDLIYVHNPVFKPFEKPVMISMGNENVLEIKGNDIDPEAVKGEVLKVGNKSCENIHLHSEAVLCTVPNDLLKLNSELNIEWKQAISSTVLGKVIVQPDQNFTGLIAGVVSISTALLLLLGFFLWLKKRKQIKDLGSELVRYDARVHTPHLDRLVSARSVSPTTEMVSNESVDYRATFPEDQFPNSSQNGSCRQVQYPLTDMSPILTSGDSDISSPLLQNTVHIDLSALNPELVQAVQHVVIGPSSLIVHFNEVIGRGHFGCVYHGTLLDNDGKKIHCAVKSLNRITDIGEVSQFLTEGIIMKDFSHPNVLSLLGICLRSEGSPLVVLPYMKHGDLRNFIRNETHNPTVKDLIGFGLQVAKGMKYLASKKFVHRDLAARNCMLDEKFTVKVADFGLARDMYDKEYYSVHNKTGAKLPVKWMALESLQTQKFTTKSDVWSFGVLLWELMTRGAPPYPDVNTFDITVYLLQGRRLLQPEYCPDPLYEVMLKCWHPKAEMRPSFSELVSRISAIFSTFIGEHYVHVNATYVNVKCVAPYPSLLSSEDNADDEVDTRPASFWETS
Method in brief: as §2

AKT = target: T13, AKT (Homo sapiens, UniProt Q9Y243); assay: Kinase inhibition assay (33P transfer), AKT; conditions: Table 2, kinase inhibition class; read-out: AKT3-1
T13 construct: Kinases are expressed as either kinase domains or full length constructs; made in house
Method in brief: as §1

IGFR-1 = target: T14, IGFR-1 (Homo sapiens, UniProt P08069); assay: Kinase inhibition assay, IGFR-1 (Table 2); conditions: Table 2, kinase inhibition class
T14 construct: Kinases are expressed as either kinase domains or full length constructs; made in house
T14 sequence (P08069 31-1367): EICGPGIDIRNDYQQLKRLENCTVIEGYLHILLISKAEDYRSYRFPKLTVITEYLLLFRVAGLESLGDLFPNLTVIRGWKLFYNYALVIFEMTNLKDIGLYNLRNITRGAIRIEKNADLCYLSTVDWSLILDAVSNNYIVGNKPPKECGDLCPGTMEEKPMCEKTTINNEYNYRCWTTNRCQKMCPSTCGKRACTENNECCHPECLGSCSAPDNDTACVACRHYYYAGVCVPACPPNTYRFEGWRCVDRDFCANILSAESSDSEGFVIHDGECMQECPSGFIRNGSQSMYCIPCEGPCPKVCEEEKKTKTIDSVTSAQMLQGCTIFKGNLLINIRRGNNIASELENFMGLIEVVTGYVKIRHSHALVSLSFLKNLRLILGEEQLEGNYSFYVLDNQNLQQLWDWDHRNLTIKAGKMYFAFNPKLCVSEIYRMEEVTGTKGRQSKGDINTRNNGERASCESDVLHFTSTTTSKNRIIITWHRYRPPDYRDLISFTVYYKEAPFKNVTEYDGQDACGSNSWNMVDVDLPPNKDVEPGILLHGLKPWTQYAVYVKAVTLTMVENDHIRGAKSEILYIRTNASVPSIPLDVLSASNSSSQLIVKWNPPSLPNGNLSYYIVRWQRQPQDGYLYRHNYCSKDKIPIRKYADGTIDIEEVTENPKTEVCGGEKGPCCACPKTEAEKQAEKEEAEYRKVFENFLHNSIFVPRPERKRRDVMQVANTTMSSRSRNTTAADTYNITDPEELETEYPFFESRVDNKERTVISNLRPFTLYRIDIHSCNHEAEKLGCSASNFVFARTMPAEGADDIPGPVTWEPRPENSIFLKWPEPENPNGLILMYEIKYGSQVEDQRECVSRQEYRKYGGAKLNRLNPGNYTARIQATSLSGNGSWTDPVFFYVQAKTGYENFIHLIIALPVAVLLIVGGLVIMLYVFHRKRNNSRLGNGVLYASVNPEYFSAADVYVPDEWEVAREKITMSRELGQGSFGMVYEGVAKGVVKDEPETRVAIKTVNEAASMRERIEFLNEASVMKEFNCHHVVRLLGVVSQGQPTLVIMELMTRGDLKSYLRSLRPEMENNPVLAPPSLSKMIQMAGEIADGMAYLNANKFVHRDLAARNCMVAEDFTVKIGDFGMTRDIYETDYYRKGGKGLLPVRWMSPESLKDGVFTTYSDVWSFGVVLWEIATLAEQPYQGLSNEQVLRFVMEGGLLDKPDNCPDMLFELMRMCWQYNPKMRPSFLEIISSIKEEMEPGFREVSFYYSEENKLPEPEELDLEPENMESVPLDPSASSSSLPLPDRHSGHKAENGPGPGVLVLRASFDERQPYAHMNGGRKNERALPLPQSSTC

PDGFRB = target: T15, PDGFRB (Homo sapiens, UniProt P09619); assay: Kinase inhibition assay (33P transfer), PDGFRB; conditions: read-out: PDGFRB-1
T15 construct: Kinases are expressed as either kinase domains or full length constructs; made in house

Hck-1 = target: T16, Hck-1 (Homo sapiens, UniProt P08631); assay: Kinase inhibition assay (33P transfer), Hck; conditions: Table 6, Hck-1 kinase inhibition class
T16 construct: Kinases are expressed as either kinase domains or full length constructs; made in house
T16 sequence (P08631 whole entry, the tested form may be a part): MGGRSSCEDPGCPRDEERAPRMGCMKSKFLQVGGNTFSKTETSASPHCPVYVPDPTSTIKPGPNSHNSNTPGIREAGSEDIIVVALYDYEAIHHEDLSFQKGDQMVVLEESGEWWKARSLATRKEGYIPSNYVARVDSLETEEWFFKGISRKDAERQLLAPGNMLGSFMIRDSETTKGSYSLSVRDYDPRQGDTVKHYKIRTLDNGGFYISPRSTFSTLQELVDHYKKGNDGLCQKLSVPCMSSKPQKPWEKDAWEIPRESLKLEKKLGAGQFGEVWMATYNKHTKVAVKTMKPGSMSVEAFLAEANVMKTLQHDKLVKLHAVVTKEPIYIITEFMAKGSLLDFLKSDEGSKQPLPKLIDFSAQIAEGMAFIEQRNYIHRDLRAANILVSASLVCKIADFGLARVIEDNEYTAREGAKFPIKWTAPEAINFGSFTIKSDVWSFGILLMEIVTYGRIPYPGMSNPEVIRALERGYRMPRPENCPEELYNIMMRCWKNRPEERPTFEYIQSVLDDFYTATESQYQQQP

ErbB4 = target: T17, ErbB4 (Homo sapiens, UniProt Q15303); assay: Kinase inhibition assay (33P transfer), ErbB4; conditions: read-out: ErbB4-1
T17 construct: Kinases are expressed as either kinase domains or full length constructs; made in house

Ret-1 = target: T18, Ret-1 (Homo sapiens, UniProt P07949); assay: Kinase inhibition assay (33P transfer), Ret; conditions: Table 6, Ret-1 kinase inhibition class
T18 construct: Kinases are expressed as either kinase domains or full length constructs; made in house
T18 sequence (P07949 29-1114): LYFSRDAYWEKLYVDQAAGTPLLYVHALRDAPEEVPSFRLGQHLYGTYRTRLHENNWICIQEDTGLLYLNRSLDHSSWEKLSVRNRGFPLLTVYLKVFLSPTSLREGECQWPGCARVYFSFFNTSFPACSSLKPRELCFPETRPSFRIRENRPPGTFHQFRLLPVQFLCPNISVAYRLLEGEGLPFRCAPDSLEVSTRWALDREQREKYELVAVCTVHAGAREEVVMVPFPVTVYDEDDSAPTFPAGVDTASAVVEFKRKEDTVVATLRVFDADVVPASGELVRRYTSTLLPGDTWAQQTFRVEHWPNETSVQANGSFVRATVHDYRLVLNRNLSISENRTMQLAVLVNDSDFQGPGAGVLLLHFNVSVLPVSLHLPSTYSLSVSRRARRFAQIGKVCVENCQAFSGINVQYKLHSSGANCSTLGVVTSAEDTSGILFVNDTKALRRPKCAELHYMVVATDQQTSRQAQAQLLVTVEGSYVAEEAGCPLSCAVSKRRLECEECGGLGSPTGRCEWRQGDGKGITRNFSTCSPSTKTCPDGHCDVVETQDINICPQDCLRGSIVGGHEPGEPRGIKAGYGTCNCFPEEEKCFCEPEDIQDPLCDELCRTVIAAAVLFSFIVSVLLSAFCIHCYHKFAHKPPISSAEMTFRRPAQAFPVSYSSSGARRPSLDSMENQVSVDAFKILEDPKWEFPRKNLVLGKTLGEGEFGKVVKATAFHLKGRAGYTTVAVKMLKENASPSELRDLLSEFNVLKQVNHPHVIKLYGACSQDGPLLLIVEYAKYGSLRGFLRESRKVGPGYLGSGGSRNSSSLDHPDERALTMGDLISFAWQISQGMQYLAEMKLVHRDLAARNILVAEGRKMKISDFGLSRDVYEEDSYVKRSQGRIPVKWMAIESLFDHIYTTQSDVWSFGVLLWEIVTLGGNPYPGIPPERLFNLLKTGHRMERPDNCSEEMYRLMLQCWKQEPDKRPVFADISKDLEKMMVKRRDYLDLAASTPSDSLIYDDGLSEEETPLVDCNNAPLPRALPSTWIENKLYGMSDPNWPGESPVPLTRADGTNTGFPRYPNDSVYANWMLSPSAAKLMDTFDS

FGFR1 = target: T19, FGFR1 (Homo sapiens, UniProt P11362); assay: Kinase inhibition assay (33P transfer), FGFR1; conditions: read-out: FGFR1-1
T19 construct: Kinases are expressed as either kinase domains or full length constructs; made in house

| SMILES | IC50 (Lck) [µM] | IC50 (Lyn) [µM] | IC50 (Src) [µM] | IC50 (Fyn) [µM] | IC50 (Zap-70) [µM] | IC50 (Itk) [µM] | IC50 (EGFR) [µM] | IC50 (ErbB2) [µM] | IC50 (Kdr) [µM] | IC50 (Flt-1) [µM] | IC50 (Tek) [µM] | IC50 (c-Met) [µM] | IC50 (AKT) [µM] | IC50 (IGFR-1) [µM] | IC50 (PDGFRB) [µM] | IC50 (Hck-1) [µM] | IC50 (ErbB4) [µM] | IC50 (Ret-1) [µM] | IC50 (FGFR1) [µM] |
| --- | --- | --- | --- | --- | --- | --- | --- | --- | --- | --- | --- | --- | --- | --- | --- | --- | --- | --- | --- |
| COc1cc(Nc2ncnc(-n3c(NCc4ccccc4Cl)nc4ccccc43)n2)cc(OC)c1OC [Compound 943] | 0.772 to 4.63 | 0.772 to 4.63 | > 8.69 | > 8.69 | 4.63 to 6.76 | > 8.69 | > 8.69 | > 8.69 | < 0.772 | 0.772 to 4.63 | 6.76 to 8.69 | > 8.69 | > 8.69 | > 8.69 | < 0.772 | > 8.69 | 6.76 to 8.69 | < 0.772 | 0.772 to 4.63 |
| COc1cc(Nc2ncnc(-n3c(NCc4ccc(Cl)cc4)nc4ccccc43)n2)cc(OC)c1OC [Compound 944] | > 8.69 | 4.63 to 6.76 | > 8.69 | > 8.69 | > 8.69 | > 8.69 | > 8.69 | > 8.69 | < 0.772 | 0.772 to 4.63 | > 8.69 | > 8.69 | > 8.69 | 6.76 to 8.69 | 0.772 to 4.63 | > 8.69 | > 8.69 | < 0.772 | 0.772 to 4.63 |
| COc1cc(Nc2ncnc(-c3cccnc3NCc3ccc(F)cc3)n2)cc(OC)c1OC [Compound 1088] | 5.19 to 7.57 | > 9.73 | > 9.73 | > 9.73 | > 9.73 | > 9.73 | > 9.73 | > 9.73 | < 0.865 | > 9.73 | > 9.73 | > 9.73 | > 9.73 | > 9.73 | < 0.865 | > 9.73 | > 9.73 | < 0.865 | < 0.865 |

The remaining lines, values ahead:

| IC50 (Lck) [µM] | IC50 (Lyn) [µM] | IC50 (Src) [µM] | IC50 (Fyn) [µM] | IC50 (Zap-70) [µM] | IC50 (Itk) [µM] | IC50 (EGFR) [µM] | IC50 (ErbB2) [µM] | IC50 (Kdr) [µM] | IC50 (Flt-1) [µM] | IC50 (Tek) [µM] | IC50 (c-Met) [µM] | IC50 (AKT) [µM] | IC50 (IGFR-1) [µM] | IC50 (PDGFRB) [µM] | IC50 (Hck-1) [µM] | IC50 (ErbB4) [µM] | IC50 (Ret-1) [µM] | IC50 (FGFR1) [µM] | SMILES |
| --- | --- | --- | --- | --- | --- | --- | --- | --- | --- | --- | --- | --- | --- | --- | --- | --- | --- | --- | --- |
| < 0.892 | 0.892 to 5.35 | 0.892 to 5.35 | > 10 | > 10 | 0.892 to 5.35 | > 10 | 5.35 to 7.8 | < 0.892 | 0.892 to 5.35 | 0.892 to 5.35 | 0.892 to 5.35 | > 10 | < 0.892 | 0.892 to 5.35 | > 10 | > 10 | < 0.892 | < 0.892 | CCN(CC)CCOc1ccc(Nc2ncnc(-n3c(N)nc4ccccc43)n2)cc1OC [Compound 652] |
| < 0.796 | < 0.796 | < 0.796 | 0.796 to 4.78 | > 8.95 | 0.796 to 4.78 | < 0.796 | < 0.796 | < 0.796 | 4.78 to 6.96 | 0.796 to 4.78 | > 8.95 | > 8.95 | 0.796 to 4.78 | < 0.796 | 0.796 to 4.78 | 0.796 to 4.78 | 0.796 to 4.78 | 0.796 to 4.78 | COc1cc(Nc2ncnc(Nc3cccc4ccccc34)n2)cc(OC)c1OCCN1CCOCC1 [Compound 1041] |
